Assay results from patent US6013628A, “Method for treating conditions of the eye using polypeptides” (Regents of the University of Minnesota, priority 1995, dated 2000).
No end group written: not given here.

Tests used:
[1] = system: proliferative vitreoretinopathy in rabbits; assay: Rabbit model of experimental proliferative vitreoretinopathy (intravitreal fibroblast injection); assay type: in vivo
Procedure: The rabbit model for proliferative vitreoretinopathy is described in Thresher et al., Graefe's Arch. Clin. Exp. Ophthalmol., 221, 192-198 (1984). Adult Dutch Belted rabbits of both sexes were used in the study. All animals were treated according to ARVO Animal Use Guidelines. All eyes were examined prior to initiation of a study and only clinically normal animals were used.
The rabbits were anesthetized using an intramuscular injection of a mix of ketamine (30 mg/kg) and xylazine (5 mg/kg). Pupils were dilated with Mydriacyl (Tropicamide) 1% and Neosynephrine 2.5% topical drops. Topical conjunctival anesthesia was provided with Proparacaine […] drops. All procedures were performed in an approved animal surgical facility. […] This site was used for subsequent intraocular injections, preventing iatrogenic retinal tears at the injection site. An intravitreal injection of 0.4 cc millipore-filtered 100% perfluoropropane gas was administered to produce a gas compression vitrectomy. Once the expansile gas bubble had absorbed, 5-10×10^4 dermal rabbit fibroblasts with or without 200 μg of polypeptide (injection volume-0.1 cc) were injected through a 27 gauge needle into the vitreous cavity. Under indirect ophthalmoscopic visualization, the tip of the needle was placed over the optic nerve head and the cells were injected in this location.
The animals were then observed for the development of proliferative vitreoretinopathy. The final stage of retinal detachment was scored from 0 to 7 using the standard grading scale shown below (see Hida et al., Graefe's Arch. Clin. Exp. Ophthalmol., 225, 1763-1769 (1991)).
Retinal photographs were taken with a wide field fundus camera (Canon) to document the final stage of retinal detachment. Animals were sacrificed while under deep anesthesia with an intravenous injection of 1 cc of euthanasia solution. The eyes were then immediately enucleated, fixed in 10% formalin, paraffin embedded, sectioned at 7 microns, and stained with hematoxylin and eosin for histology.
Three weeks following peripheral retinal cryopexy and gas compression vitrectomy, rabbit fibroblasts incubated for 1 hr with 200 ug of laminin polypeptide R37, type IV collagen polypeptide Hep-II, or BSS (balanced saline solution; control) were injected intravitreally. One eye of each rabbit received polypeptide incubated fibroblasts and the other eye received the control cells. Eyes were examined every three days, and the degree of retinal detachment was graded on the standard scale described above.

[2] = system: rabbit conjunctival fibroblasts; assay: Conjunctival fibroblast proliferation, tritiated thymidine assay; assay type: cell-based; settings: for Thymidine uptake: day 4, no drug control 8537 cpm
Source text: The failure of gluacoma treatment by filtration surgery is most often caused by scarring. Scarring requires fibroblast proliferation and fibrosis of the subconjunctive space. Proliferation of rabbit conjunctival fibroblasts was studied using the tritiated thymidine assay, which serves as an in vitro model of fibroblast proliferation in the rabbit eye (see Invest. Ophthalmol. Vis. Sci., 31, 1848-1855 (1990)). The ability of synthetic polypeptides derived from ECM molecules to inhibit conjuntival fibroblast proliferation was examined in this model.
Rabbit conjunctival fibroblasts were plated into 96-well microtiter plates at 1000 cells/well in 200 microliters of standard fibroblast culture media. Standard fibroblast culture media include Eagle's minimal essential medium containing 15% fetal bovine serum, penicillin G 100 IU/ml, streptomycin 100 μg/ml, and amphotericin B 0.25 μg/ml. Hep-II was added to the wells in concentrations ranging from 1 μg/ml to 1000 μg/ml after removing an equal volume of media to maintain 200 microliters/well. The peptide was used in concentrations of 1, 3, 7, 10, 25, 50, 100, 200, 300, 400, 500, 600, 800 and 1000 microgram/ml (experiments 1-14, respectively in FIG. 26). The tissue culture plates were incubated at 37° C. in a humidified atmosphere of 5% carbon dioxide. Two separate sets experiments were conducted. Each set of experiments was done in replicates of four. In the first set of experiments, tritiated thymidine was added 22 hours prior to each harvesting on days 4, 5, and 8. In the second set of experiments, tritiated thymidine was added 22 hours prior to each harvesting on days 4, 5, and 6. Wells with vehicle but no test compound served as negative controls (experiment #15) and cells with mitomycin-C at 100 μg/ml served as positive controls (experiment #16).

[3] = 3H-heparin; cited from earlier work
rabbit eye = assay: Intravitreal polypeptide toxicity in rabbit eye (ERG, clinical observations, histology); assay type: in vivo
Procedure: The toxicity of the polypeptides was determined by three techniques:
ERG. Electroretinograms (ERG) were carried out as a functional indicator of toxicity of a polypeptide treatment. Polypeptides were injected at 200 ug and 400 ug (twice the dose that inhibited proliferative vitreoretinopathy), and ERG measurements were performed three times in each eye at various times post-injection (1 hr to 6 weeks).
Clinical observations. Observation by indirect ophthalmoscopy and slit lamp examination were performed to probe for evidence of toxicity.
Histology. Following ERG and clinical observations, the eyes were immediately enucleated, fixed in 10% formalin, paraffin embedded, sectioned at 7 microns, and stained with hematoxylin and eosin.

## LAGSCLARFSTM [Hep-II, Leu-Ala-Gly-Ser-Cys-Leu-Ala-Arg-Phe-Ser-Thr-Met]
[1]; 200 ug with 100,000 fibroblasts, seven weeks after fibroblast injection
  Retina appearance (stage 0-7 scale), fundus photograph: normal (Stage 0)
[1]; Expt I: 200 ug, 50,000 cells, RD staged at day 21, control 66%
  # Detached Retinas (%): 17%
[1]; Expt I: 200 ug, 50,000 cells, RD staged at day 21, total 6 eyes, control 4 of 6
  # Detached Retinas: 1
[1]; fibroblasts incubated 1 hr with 200 ug polypeptide, intravitreal
  Degree of retinal detachment: inhibited the degree of retinal detachment
[2]; 800 microgram/ml
  Thymidine uptake: 580 cpm
[2]; 1000 microgram/ml
  Thymidine uptake: 589 cpm
[2]; similar to mitomycin-C
  Concentration effective in controlling fibroblast proliferation in vitro: 800-1000 microgram/ml
[3]
  Heparin binding: reported to bind heparin
Rabbit eye; 6 weeks after injection of 200 ug in 0.1 ml
  Fundus appearance: indistinguishable from the control eye
Rabbit eye; intravitreal injection of 200 ug or 400 ug
  Toxic effects by clinical observations, histopathology or ERG: No toxic effects
